Numbers after ± are expanded uncertainties.
Experiments:
[1] = 298.15 K, Static calorimetry; for molar enthalpy of sublimation: Crystal
[2] = molar enthalpy of vaporization or sublimation; details: 298.15 K; Crystal; Static calorimetry

Row | molar enthalpy of sublimation [1] [kcal/mol] | molar enthalpy [2] [kcal/mol] | SMILES | other results
1 | – | 16.3 ± 0.717 | Oc1cccc(F)c1F [2,3-Difluorophenol] | –
2 | – | 18.6 ± 0.908 | Oc1c(F)cccc1F [2,6-difluorophenol] | –
3 | 17.4 ± 0.717 | – | Oc1ccc(F)c(F)c1 [3,4-Difluorophenol] | –

Second part, the molecule before the results:

Row | SMILES | molar enthalpy of sublimation [1] [kcal/mol] | molar enthalpy [2] [kcal/mol] | other results
4 | Oc1cc(F)cc(F)c1 [3,5-Difluorophenol] | 17.4 ± 1.05 | – | –
5 | Oc1cc(F)ccc1F [2,5-Difluorophenol] | – | 16.3 ± 0.669 | –
6 | Oc1ccc(F)cc1F [2,4-Difluorophenol] | – | – | molar enthalpy of vaporization ([1]; Liquid): 14.1 ± 0.43 kcal/mol

From the NIST ThermoML archive (doi:10.1016/j.jct.2009.07.011)
